Assay results from publication PMC4339887, “Selective Sirt2 inhibition by ligand-induced rearrangement of the active site” (Nature Communications, 2015).
Entries after “also recorded” stand apart in the source; their conditions may differ.

Key:
[1] = tested on: α-tubulin acetylation in HeLa cells; assay: tubulin acetylation, western blot; format: cell-based; conditions: various concentrations, 5 h
Description: Cell samples were then separated using SDS–PAGE (12.5% (w/v) polyacrylamide), transferred to an activated nitrocellulose membrane (Bio-Rad), blocked with non-fat dry milk (Roth, 5% (w/v), TBS, 0.1% (v/v) Tween 20) and probed with an anti-acetyl-α-tubulin antibody (1:1,000, Sigma-Aldrich, T6793) and an anti-GAPDH antibody (1:2,000–1:5,000, Sigma-Aldrich, G9545) as a loading control (Fusion SL, peqlab). An uncropped blot is shown in Supplementary Fig. 8.

human Sirt1 = biological target: T1, human Sirt1 (Homo sapiens, UniProt Q96EB6); assay: HPLC-based conversion assay, non-labelled acetyl-lysine α-tubulin peptide; conditions: read-out: inhibition of Sirt1
T1 sequence (Q96EB6 133-747): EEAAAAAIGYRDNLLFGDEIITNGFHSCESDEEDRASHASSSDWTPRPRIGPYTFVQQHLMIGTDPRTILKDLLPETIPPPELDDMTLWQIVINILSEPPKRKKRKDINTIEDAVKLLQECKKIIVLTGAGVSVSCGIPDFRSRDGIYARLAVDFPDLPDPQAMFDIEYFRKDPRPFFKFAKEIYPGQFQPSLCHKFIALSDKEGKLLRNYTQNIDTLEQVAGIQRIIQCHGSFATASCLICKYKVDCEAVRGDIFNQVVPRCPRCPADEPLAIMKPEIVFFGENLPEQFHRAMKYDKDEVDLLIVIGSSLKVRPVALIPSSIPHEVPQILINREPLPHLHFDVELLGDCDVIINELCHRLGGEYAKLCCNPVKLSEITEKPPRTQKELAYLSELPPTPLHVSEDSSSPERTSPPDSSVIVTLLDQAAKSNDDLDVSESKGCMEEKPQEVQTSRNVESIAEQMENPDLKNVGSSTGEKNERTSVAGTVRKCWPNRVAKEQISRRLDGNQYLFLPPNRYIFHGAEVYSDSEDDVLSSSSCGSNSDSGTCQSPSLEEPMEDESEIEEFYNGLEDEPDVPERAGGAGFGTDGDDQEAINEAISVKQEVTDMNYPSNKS

human Sirt5 = biological target: T2, human Sirt5 (Homo sapiens, UniProt Q9NXA8); assay: HPLC-based assay, non-labelled succinyl-lysine peptide; format: biochemical; conditions: 200 μM, succinyl-lysine substrate
T2 construct: human Sirt5_34–302 (Uniprot: Q9NXA8); made in house
T2 sequence (Q9NXA8 34-302): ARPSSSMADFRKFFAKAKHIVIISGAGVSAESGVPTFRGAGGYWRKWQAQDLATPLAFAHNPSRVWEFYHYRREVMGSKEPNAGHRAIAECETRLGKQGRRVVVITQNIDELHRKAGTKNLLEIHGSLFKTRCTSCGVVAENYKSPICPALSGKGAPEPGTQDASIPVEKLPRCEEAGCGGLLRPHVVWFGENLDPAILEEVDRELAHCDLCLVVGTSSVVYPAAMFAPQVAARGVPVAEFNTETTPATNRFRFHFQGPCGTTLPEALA

human Sirt4 = biological target: T3, human Sirt4 (Homo sapiens, UniProt Q9Y6E7); assay: Sirt4-dependent deacetylation of acetylated Nnt397-peptide, LC-MS; format: biochemical; conditions: 200 μM, acetyl-lysine substrate
T3 construct: Human Sirt4_25–314 (Uniprot: Q9Y6E7); made in house
T3 sequence (Q9Y6E7 25-314): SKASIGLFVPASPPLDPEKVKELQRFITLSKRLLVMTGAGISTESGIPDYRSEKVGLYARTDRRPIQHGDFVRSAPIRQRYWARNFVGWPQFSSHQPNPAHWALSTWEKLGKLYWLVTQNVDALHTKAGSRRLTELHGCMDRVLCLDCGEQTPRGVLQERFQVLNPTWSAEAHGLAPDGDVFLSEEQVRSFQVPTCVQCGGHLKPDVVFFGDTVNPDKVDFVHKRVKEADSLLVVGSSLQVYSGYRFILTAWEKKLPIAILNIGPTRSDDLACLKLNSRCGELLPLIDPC
Procedure: Initial screens were conducted with a high-throughput fluorescence-based assay using the substrate ZMAL (Z-Lys(Acetyl)-AMC) that was synthesized according to published procedures. For this human Sirt1_133–747, human Sirt2_25–389, human Sirt3_101–399 or Sirt3_118–395 were mixed with assay buffer (50 mM Tris/HCl, 137 mM NaCl, 2.7 mM KCl, 1 mM MgCl2, pH 8.0), β-NAD^+ (final assay concentration 500 μM), the substrate ZMAL (final assay concentration 10.5 μM from a 12.6 mM stock solution in DMSO) and the respective inhibitor in DMSO at various concentrations or DMSO as a control (final DMSO concentration 5–20% (v/v)). The mixture was incubated at 37 °C for 4 h, with agitation at 150 r.p.m. […] Then the fluorescence intensity was measured in a microplate reader (BMG Polarstar, λex 390 nm, λem 460 nm). The amount of inhibition was determined with respect to the mixture with only DMSO. IC50 values were determined with Graphpad Prism software using a non-linear regression to fit the dose–response curve. […] Peaks of acetylated and deacetylated substrate were quantified by absorption at 280 nm. […] The samples were then diluted to a peptide concentration of 5 μM with 0.1% (v/v) formic acid and analysed on an EASY-nLCII connected to a LTQ mass spectrometer (Thermo Fisher Scientific). […]

SMILES: Cc1cc(C)nc(SCC(=O)Nc2ncc(Cc3cccc4ccccc34)s2)n1 [SirReal2]
- level of α-tubulin acetylation [1]: tubulin hyperacetylation; also recorded: significant increase
- inhibition at 100 µM (human Sirt1): 22%
- effect on activity of Sirt5 (human Sirt5): very little effect
- effect on activity of Sirt4 (human Sirt4): very little effect
